Entries after “also recorded” stand apart in the source; their conditions may differ.
Tests used:
[1] = system: SARG-1 over-expressing PC12 cells; test: Viability of SARG-1 over-expressing PC12 cultures treated with kinase inhibitors; type: cell-based, rat; settings: staurosporine at 100 nM, in comparison to vector control cultures
Excerpt: (§1) To examine the expression and function of SARG-1 in a neural cell culture system, standard molecular biology techniques (Sanbrook et al, 1989) were used to clone the rat SARG-1 coding sequence (rSARG-1479) into the pIRESII-EGFP eukaryotic expression vector (Clontech) under the control of a CMV promoter which bicistroni-cally translates through an internal IRES sequence both SARG-1477 and enhanced green fluorescent protein. The rat pheochromocytoma PC12 cell line was maintained in DMEM supplemented with 8% horse serum, 8% fetal calf serum and an antibiotic-antimycotic mix containing 100 units/ml penicillin, 100 μg/ml streptomycin, and 0.25 μg/ml amphotericin B (all from GibcoBRL) in a fully humidified air atmosphere containing 5% CO2 at 37° C. Semi-confluent cultures in 6-well plates were transfected with pIRES2-EGFP-SARG-1 or empty vector for 18 h in the presence of the uptake enhancing cationic lipid mix pFx1 (Invitrogen) at a 6:1 lipid to DNA ratio in serum-free opti-MEN (Gibco). Stable transfectant colonies were picked from separate wells after selection in […] geneticin (Gibco) and clones with similar EGFP fluorescence expanded from independent transfections.
(§2) Over-expression of SARG-1 also enhances terminal differentiation of PC12 cells induced by nerve growth factor (FIG. 14).

[2] = system: PC12 cells transfected with empty vector; test: Vector control PC12 cultures treated with staurosporine; type: cell-based, rat; settings: 100 nM
Excerpt: as §1, §2

[3] = system: SARG-1 over-expressing PC12 cells; test: Flow cytometrical cell cycle analysis of transfected PC12 cells; type: cell-based, rat; settings: 100 nM, 24 h, ethanol fixed cells
Excerpt: as §2

[4] = system: PC12 cells; settings: cited from earlier work

SMILES | effect on viability / cell death [1] | effect on vector control cultures [2] | flow cytometry: sub G0/G1 peak / loss of DNA characteristic of apoptosis [3] | concentration inducing apoptosis ([4]; Fu et al, 1999) | concentration inducing neurite outgrowth ([4]; Hashimoto and Hagino, 1989) [nM]
CN[C@@H]1C[C@H]2O[C@@](C)([C@@H]1OC)n1c3ccccc3c3c4c(c5c6ccccc6n2c5c31)C(=O)NC4 [staurosporine] | rapid loss in viability | neurite outgrowth | sub G0/G1 peak characteristic for the induction of apoptosis is seen only in SARG-1 over-expressing cells; also recorded: loss of DNA from ethanol fixed cells | above 1 mM | 100
COC(=O)[C@@]1(O)C[C@H]2O[C@]1(C)n1c3ccccc3c3c4c(c5c6ccccc6n2c5c31)C(=O)NC4 [X252a] | No similar effects | – | – | – | –
CN(C)CCCn1cc(C2=C(c3c[nH]c4ccccc34)C(=O)NC2=O)c2ccccc21 [Bisindolylmaleimide I] | No similar effects | – | – | – | –
COc1cccc(-c2cc(=O)c3ccccc3o2)c1N [PD 98059] | No similar effects | – | – | – | –
